Test results reported in US10183011B2, “Anti-depression compounds” (Board of Regents of the University of Texas System, priority 2009, dated 2019).
“Also recorded” adds a separate entry of the source.

Key:
C. elegans = assay: MPP+-induced mobility deficits in C. elegans; type: in vivo; settings: for locomotion (distance traveled by the head in 10 seconds divided by body length): 10 μM with MPP+, VEH 16.2±0.49, MPP+ alone 7.2±0.68; for mobility protected, relative to normal: 10 μM, 5 mM MPP+ for 32 hours
Procedure: FIG. 32. Protective efficacy of P7C3 and P7C3A20 for MPP^+-induced mobility deficits in C. elegans. The top panels show worms with the head identified by a green dot. […] Tracking is visualized as starting with blue color and progressing to white by the completion of 10 seconds. The green dot was used to determine locomotion, defined as the distance traveled by the head of the worm in 10 seconds divided by body length. Scale bars represent 70 μM. […] When worms were treated with MPP^+, locomotion was reduced more than 50% (7.2±0.68; n=31, p<0.0001). […] P7C3A20 protected mobility to almost 80% of normal (12.8±0.81; n=34, *p<0.01), and 10 μM P7C3 protected almost 60% (m.i. of 9.6±0.72; n=28, *p<0.05). […] (7.7±1.0; n=30). Experiments were performed in triplicate and data are expressed as mean±SEM.
As a behavioral measure of toxicity, worm mobility was assessed 32 hours after MPP^+-exposure. To quantify worm locomotion, video representations were recorded for 10 seconds at 4× magnification using a Nikon Eclipse 80i microscope. Each video segment consisted of 160 frames, and the head of each worm (10-20 worms per group, repeated in triplicate) was manually tracked in each frame using Imera software. The body length of each worm was also measured by Imera software. The ratio of distance traveled to body length was used to determine the movement index, defined as locomotion, as previously established (Wang J., et al. (2009) An ALS-linked mutant SOD1 produces a locomotor defect associated with aggregation and synaptic dysfunction when expressed in neurons of Caenorhabditis elegans. PLoS Genetics e10003350). […] Co-incubation of MPP^+-exposed worms with 10 μM P7C3A20 conferred 80% preservation of locomotion, while 10 μM P7C3 protected to about 60% of normal levels.
A video-based assay was used to assess the swim speed, distance traveled and length of worms. After exposure to MPP^+ for 32 hrs, worms were washed, resuspended in M9 buffer (500 ul) and transferred to microscope slides. A 10 second movie was recorded at 4× magnification using a Nikon Eclipse 80i microscope. Each movie consisted of 160 frames and the distance traveled by the head of each worm was manually tracked in each frame using Imera software. This software was also used to measure the length of the worm body. The ratio of movement distance to body length was used as a movement index, and defined as locomotion per standard protocols.

U2OS cells = assay: Calcium ionophore A23187-induced loss of mitochondrial membrane potential (TMRM dye release); type: cell-based
Source text: FIG. 22A, FIG. 22B, FIG. 22C, FIG. 22D, FIG. 22E and FIG. 22F: Example 45 Compound Preserves Mitochondrial Membrane Potential in Parallel to Proneurogenic Activity U2OS cells were loaded with tetramethylrhodamine methyl ester (TMRM) dye and then exposed to the calcium ionophore A23187 either in the presence or absence of test compounds. Example 45 Compound (FIG. 22A) preserved mitochondrial membrane potential following exposure to the calcium ionophore A23187 in a dose-dependent manner. The protective effect of P7C3 was enantiomeric specific. […] Each compound was evaluated in triplicate with similar results.
Extensive evidence pioneered by the laboratory of Xiaodong Wang has shown that an intrinsic pathway leading to programmed cell death emanates from mitochondria (Liu et al., Cell 1996, 86, 147-157; Yang et al., Science 1997, 275, 1129-1132). With the help of the Wang lab, assays were established to test whether Example 45 Compound might protect mitochondria from calcium-induced dissolution (Distelmaier et al., Cytometry A 2008, 73, 129-138). Tetramethylrhodamine methyl ester (TMRM) is a cell-permeant, cationic red-orange fluorescent dye that is readily sequestered by active mitochondria. When loaded with TMRM dye, vehicle-only treated cells released the dye within 15 minutes of exposure to the calcium ionophore A23187. By contrast, dye release was prevented in cells exposed to as little as […] of Example 45 Compound (FIG. 18A).
Since P7C3 ameliorates the death of newborn neurons in the dentate gyrus in living mice, it is possible that its function might relate to mitochondrial integrity. Assays were established to test whether P7C3 might protect cultured U2OS cells from calcium-induced mitochondrial dissolution (Distelmaier et al., Cytometry A 2008, 73, 129-138). Tetramethylrhodamine methylester (TMRM) dye is sequestered by active mitochondria, and, when loaded with TMRM, vehicle-treated cells released the dye within 15 rain of exposure to the calcium ionophor A23 187.

SMILES	locomotion (distance traveled by the head in 10 seconds divided by body length) (C. elegans)	mobility protected, relative to normal (C. elegans)	lowest amount that prevented TMRM dye release (U2OS cells)	preservation of mitochondrial membrane potential (U2OS cells; TMRM dye)	lowest concentration that blocked TMRM dye release (U2OS cells; U2OS cells)
Cc1ccc2c(c1)c1c(n2CCc2ccc(C)nc2)CCN(C)C1 [Dimebon, 2,3,4,5-Tetrahydro-2,8-dimethyl-5-(2-(6-methyl-3-pyridyl)ethyl)-1H-pyrido(4,3-b)indole, reference compound]	7.7±1.0	offered no protective efficacy; also recorded: did not offer any protection			
OC(CNc1ccccc1)Cn1c2ccc(Br)cc2c2cc(Br)ccc21 (centres unmarked) [Example 45 Compound]			≤ 10 ng		
COc1cccc(NCC(F)Cn2c3ccc(Br)cc3c3cc(Br)ccc32)c1 (centres unmarked) [Example P7C3A20, N-(3-(3,6-dibromo-9H-carbazol-9-yl)-2-fluoropropyl)-3-methoxyaniline]	12.8±0.81	80%		protection of mitochondrial membrane permeability was observed at an enhanced level; also recorded: exhibited dye release protection at all doses tested	
OC(CNc1ccccc1)Cn1c2ccc(Br)cc2c2cc(Br)ccc21 (centres unmarked) [Example P7C3]	9.6±0.72				≤ 10 nM
